This is an account of results in US9949475B2, “Composition comprising active ingredient, oil and ionic liquid” (priority 2011, dated 2018).

In brackets after ≈: the same amount, converted by molar mass. Where two headings read alike, the source gives them in different places.

This series in a line: Solubility of UV absorber in oil comprising ionic liquid. It is filed as physicochemical. Conditions: for solubility: 21 °C, thermodynamic from solid, read-out: Solubility of Tinosorb ® S with Cetiol ® B as oil; for Solubility of Uvinul ® T150 with Cetiol ® B as oil: 21° C. On the procedure:
For this, increasing amounts of active ingredient were added stepwise to oil (Cetiol® B or Solvesso®), which comprised the ionic liquid, until the maximum solubility was reached. Alternatively, the oil, which comprised the ionic liquid, was saturated with the active ingredient and the soluble fraction of active ingredient was quantified by means of HPLC.

What is called solubility is the dissolved amount per volume that the medium holds. For the compound `CCCCC(CC)COc1ccc(-c2nc(-c3ccc(OC)cc3)nc(-c3ccc(OCC(CC)CCCC)cc3O)n2)c(O)c1` (centres unmarked) [Tinosorb ® S, bis-ethylhexyloxyphenol methoxyphenyl triazine], the solubility (neat ionic liquid (no oil), organic solvent or mixture, 100 IL (no oil), IL N-butyl-N′-methylimidazolium acetate) turned out to be 1 mg/mL (≈ 1590 µM); the solubility (neat ionic liquid (no oil), organic solvent or mixture, 100 IL (no oil), IL N-ethyl-N′-ethylimidazolium heptanoate) came to 1 mg/mL (≈ 1590 µM); the solubility (neat ionic liquid (no oil), organic solvent or mixture, 100 IL (no oil), IL N-ethyl-N′-ethylimidazolium octanoate) worked out at 1 mg/mL (≈ 1590 µM); the solubility (neat ionic liquid (no oil), organic solvent or mixture, 100 IL (no oil), IL N-ethyl-N′-methylimidazolium isononanoate) was found to be 9.5 mg/mL (≈ 15100 µM); the solubility (neat oil (no ionic liquid), oil or lipid, 100 Oil (Cetiol B, no IL)) came to 6.2 mg/mL (≈ 9880 µM); the solubility (oil/ionic liquid mixture, oil or lipid, Oil/IL 20/80 weight ratio, IL N-butyl-N′-methylimidazolium acetate) worked out at 12.4 mg/mL. The solubility is 16.7 mg/mL (oil/ionic liquid mixture, oil or lipid, Oil/IL 20/80 weight ratio, IL N-ethyl-N′-ethylimidazolium octanoate); 19.2 mg/mL (oil/ionic liquid mixture, oil or lipid, Oil/IL 20/80 weight ratio, IL N-ethyl-N′-methylimidazolium isononanoate); 14.3 mg/mL (oil/ionic liquid mixture, oil or lipid, Oil/IL 60/40 weight ratio, IL N-butyl-N′-methylimidazolium acetate); 21.9 mg/mL (oil/ionic liquid mixture, oil or lipid, Oil/IL 60/40 weight ratio, IL N-ethyl-N′-ethylimidazolium heptanoate); 21.9 mg/mL (oil/ionic liquid mixture, oil or lipid, Oil/IL 60/40 weight ratio, IL N-ethyl-N′-ethylimidazolium octanoate); 22.4 mg/mL (oil/ionic liquid mixture, oil or lipid, Oil/IL 60/40 weight ratio, IL N-ethyl-N′-methylimidazolium isononanoate). Besides, the solubility (oil/ionic liquid mixture, oil or lipid, Oil/IL 90/10 weight ratio, IL N-butyl-N′-methylimidazolium acetate) amounted to 11.7 mg/mL; the solubility (oil/ionic liquid mixture, oil or lipid, Oil/IL 90/10 weight ratio, IL N-ethyl-N′-ethylimidazolium heptanoate) came out at 13 mg/mL; the solubility (oil/ionic liquid mixture, oil or lipid, Oil/IL 90/10 weight ratio, IL N-ethyl-N′-ethylimidazolium octanoate) worked out at 13 mg/mL; the solubility (oil/ionic liquid mixture, oil or lipid, Oil/IL 90/10 weight ratio, IL N-ethyl-N′-methylimidazolium isononanoate) was 13.8 mg/mL.
Regarding `CCCCC(CC)COC(=O)c1ccc(Nc2nc(Nc3ccc(C(=O)OCC(CC)CCCC)cc3)nc(Nc3ccc(C(=O)OCC(CC)CCCC)cc3)n2)cc1` (centres unmarked) [Uvinul ® T150, 2,4,6-trianilino-p-(carbo-2′-ethylhexyl-1′-oxy)-1,3,5-triazine], the “Solubility of Uvinul ® T150 with Cetiol ® B as oil” value (“Solubility of Uvinul ® T150” below) runs as follows: (100 IL (no oil), IL Cholinium [2-(2-methoxyethoxy)ethoxy]acetate) 1 mg/mL; (100 IL (no oil), IL N-butyl-N′-methylimidazolium acetate) 5 mg/mL; (100 IL (no oil), IL N-ethyl-N′-ethylimidazolium propionate) 5 mg/mL; (100 IL (no oil), IL N-ethyl-N′-methylimidazolium acetate) 1 mg/mL; (100 IL (no oil), IL N-ethyl-N′-methylimidazolium isononanoate) 1 mg/mL; (100 Oil (Cetiol B, no IL)) 14.2 mg/mL. The “Solubility of Uvinul ® T150” value reads like this: (Oil/IL 20/80 weight ratio, IL N-butyl-N′-methylimidazolium acetate) 41.5 mg/mL; (Oil/IL 20/80 weight ratio, IL N-ethyl-N′-ethylimidazolium propionate) 44.1 mg/mL; (Oil/IL 20/80 weight ratio, IL N-ethyl-N′-methylimidazolium acetate) 40.8 mg/mL; (Oil/IL 20/80 weight ratio, IL N-ethyl-N′-methylimidazolium isononanoate) 34.8 mg/mL; (Oil/IL 60/40 weight ratio, IL N-butyl-N′-methylimidazolium acetate) 54.1 mg/mL; (Oil/IL 60/40 weight ratio, IL N-ethyl-N′-ethylimidazolium propionate) 54.3 mg/mL. Further, the “Solubility of Uvinul ® T150” value is, setting by setting: (Oil/IL 60/40 weight ratio, IL N-ethyl-N′-methylimidazolium acetate) 52.8 mg/mL; (Oil/IL 60/40 weight ratio, IL N-ethyl-N′-methylimidazolium isononanoate) 45.7 mg/mL; (Oil/IL 90/10 weight ratio, IL Cholinium [2-(2-methoxyethoxy)ethoxy]acetate) 21.3 mg/mL; (Oil/IL 90/10 weight ratio, IL N-butyl-N′-methylimidazolium acetate) 37.5 mg/mL; (Oil/IL 90/10 weight ratio, IL N-ethyl-N′-ethylimidazolium propionate) 33.3 mg/mL; (Oil/IL 90/10 weight ratio, IL N-ethyl-N′-methylimidazolium acetate) 37.5 mg/mL. The “Solubility of Uvinul ® T150” value (Oil/IL 90/10 weight ratio, IL N-ethyl-N′-methylimidazolium isononanoate) turned out to be 32.4 mg/mL.
